# Measured values as given in US6881728B1, “14-β, 17-α-hydroxymethylandrostane derivatives as androgens” (Akzo Nobel N.V., priority 1999, dated 2005).
# Experiments:
# human androgen receptor = molecular target: T1, human androgen receptor (Homo sapiens, UniProt P10275); assay: androgenic activity rating (procedures described above; which one underlies the rating is not stated); design: key: +: androgenic activity found; ++: high androgenic activity; +++: excellent androgenic activity
# T1 construct: host or cells: MCF-7 cytosol (endogenous) or CHO cells transfected with hAR
# T1 sequence (P10275 1-920): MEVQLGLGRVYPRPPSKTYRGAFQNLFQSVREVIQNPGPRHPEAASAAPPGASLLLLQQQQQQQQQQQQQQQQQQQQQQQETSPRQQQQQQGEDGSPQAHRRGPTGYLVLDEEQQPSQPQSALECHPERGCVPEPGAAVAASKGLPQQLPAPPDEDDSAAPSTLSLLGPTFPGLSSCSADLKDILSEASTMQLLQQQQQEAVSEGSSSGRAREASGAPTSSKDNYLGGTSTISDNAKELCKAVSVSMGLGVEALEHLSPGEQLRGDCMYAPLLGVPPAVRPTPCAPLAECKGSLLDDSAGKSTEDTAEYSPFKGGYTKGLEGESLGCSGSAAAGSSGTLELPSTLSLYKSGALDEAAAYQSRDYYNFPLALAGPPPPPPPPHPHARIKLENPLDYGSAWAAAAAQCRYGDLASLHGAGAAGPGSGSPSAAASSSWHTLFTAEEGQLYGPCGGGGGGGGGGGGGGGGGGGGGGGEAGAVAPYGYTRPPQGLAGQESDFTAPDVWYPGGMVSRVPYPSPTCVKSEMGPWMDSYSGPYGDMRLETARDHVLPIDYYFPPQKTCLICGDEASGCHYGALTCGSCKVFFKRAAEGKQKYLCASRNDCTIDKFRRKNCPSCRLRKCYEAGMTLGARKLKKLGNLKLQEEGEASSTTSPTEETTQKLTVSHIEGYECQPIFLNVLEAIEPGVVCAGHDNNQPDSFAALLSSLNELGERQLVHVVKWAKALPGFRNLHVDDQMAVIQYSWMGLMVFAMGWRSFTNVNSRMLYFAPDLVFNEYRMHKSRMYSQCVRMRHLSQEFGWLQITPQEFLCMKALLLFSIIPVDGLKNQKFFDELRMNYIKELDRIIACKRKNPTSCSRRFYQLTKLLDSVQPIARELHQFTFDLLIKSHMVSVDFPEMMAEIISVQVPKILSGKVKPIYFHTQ
# Protocol: Androgenic activity can be measured in various ways. Thus, the potency of androgens can be determined in vitro using the cytoplasmic androgen receptor from human breast tumor cells (MCF-7 cell line); see Bergink, E. W. et al, Comparison of the receptor binding properties of nandrolone and testosterone under in vitro and in vivo conditions, J. Steroid Biochem. 22, 831-836 (1985). It is also possible to use Chinese hamster ovary (CHO) cells transfected with the human androgen receptor (incubation time 16 h, temperature 4° C.) and compared with the affinity of 5α-dihydrotestosterone [according to the procedure described by Bergink, E. W. et al, J. Steroid Biochem. 12, 1563-1570 (1983)]. The transactivative androgen activity of the compounds of the invention can be measured, e.g. in Chinese hamster ovary cells (CHO) transfected with the human androgen receptor (hAR), in combination with a mouse mammary tumor virus (MMTV), and luciferase […] (incubation time 16 h, temperature 37° C.) and compared with the activity of 5α-dihydrotestosterone [according to the procedure described by Schoonen, W. G. E. J. et al, Analyt. Biochem. 261, 222-224 (1998)]. For the in vivo potency determination of androgens the classical Hershberger test can be used. In this test the androgenic (increase in prostate weight) and anabolic activities [increase of the musculus levator ani (MLA)] of a compound are tested in immature castrated rats after daily administration for 7 days; see Hershberger, L. G. et al, Myotrophic activity of 19-Nortestosterone and other steroids determined by modified levator ani muscle method, Proceedings of the society for experimental biology and medicine 83, 175-180 (1953). Additionally, the effect of an androgenic compound on LH suppression can be tested in mature castrated rats according to Kumar, N. et al, The biological activity of 7alpha-methyl-19-nortestosterone is not amplified in male reproductive tract as is that of testosterone, Endocrinology 130, 3677-3683 (1992).
# A plurality of compounds according to the invention were tested for androgenic activity (the procedures for which have been described above) and rated in the Table below according to the following scheme: • + androgenic activity found; • ++ high androgenic activity; • +++ excellent androgenic activity; • nd no data available
SMILES,Rating (androgenic activity) (human androgen receptor),melting point [°C]
"C[C@]12CC[C@H]3[C@@H](CCC4=CC(=O)CC[C@@H]43)[C@H]1CC[C@H]2CO [Example 1, (14β,17α)-17-(Hydroxymethyl)estr-4-en-3-one]",+++,115 to 118
"C=CC(O)[C@@H]1CC[C@@H]2[C@H]3[C@H](CC[C@@]21C)[C@H]1CCC(=O)C=C1C[C@H]3C (stereo partly drawn) [Example 18a, [7α,14β,17α(S)]-17-(1-Hydroxy-2-propenyl)-7-methylestr-4-en-3-one]",+,–
"C=CC1CC2(C)C(C(C)O)CCC2C2CCC3=CC(=O)CCC3=C12 [Example 30, (11β,14β,17α,20S)-11-Ethenyl-20-hydroxy-19-norpregna-4,9-dien-3-one]",+,–
"CC(O)C1CCC2C3C(C)CC4=CC(=O)CCC4C3CCC12C [Example 16a, (7α,14β,17α,20S)-20-Hydroxy-7-methyl-19-norpregn-4-en-3-one]",++,–
"CC(=O)OC[C@@H]1CC[C@@H]2[C@@H]3CCC4=CC(=O)CC[C@]4(C)[C@H]3CC[C@]12C [Example 22a, (14β,17α)-17-[(Acetyloxy)methyl]androst-4-en-3-one]",+,141 to 142
"C[C@]12CC[C@@H]3C4=C(CC[C@H]3[C@H]1CC[C@H]2CO)CC(=O)CC4 [Example 2, (14β,17α)-17-(Hydroxymethyl)estr-5(10)-en-3-one]",++,–
"CCC(O)[C@@H]1CC[C@@H]2[C@H]3[C@H](CC[C@@]21C)[C@H]1CCC(=O)C=C1C[C@H]3C (stereo partly drawn) [Example 17b, [7α,14β,17α(R)]-17-(1-Hydroxypropyl)-7-methylestr-4-en-3-one]",+,–
"CC(=O)OC[C@@H]1CC[C@@H]2[C@H]3[C@H](CC[C@]12C)[C@H]1CCC(=O)C=C1C[C@H]3C [Example 33a, (7α,14β,17α)-17-[(Acetyloxy)methyl]-7-methylestr-4-en-3-one]",+,–
"C[C@@H]1C[C@@H](CO)[C@@]2(C)CC[C@H]3[C@@H](CCC4=CC(=O)CC[C@@H]43)[C@@H]12 [Example 23, (14β,15β,17α)-17-(Hydroxymethyl)-15-methylestr-4-en-3-one]",+,–
"CC(O)C1C2CC2C2C3C(C)CC4=CC(=O)CCC4C3CCC12C [Example 20a, (7α,14β,15β,16β,17α,20S)-20-Hydroxy-7-methyl-15,16-methylene-19-norpregn-4-en-3-one]",++,–
"C[C@@H]1CC2=CCCC[C@@H]2[C@H]2CC[C@]3(C)[C@H](CO)CC[C@@H]3[C@@H]21 [Example 37, (7α,14β,17α)-7-Methylestr4-ene-17-methanol]",+,–
"CC1CC2=CC(=O)CCC2C2CCC3(C)C(C4CC4C3C(C)(C)O)C12 (stereo not drawn) [Example 21, (7α,14β,15β,16β,17α)-20-Hydroxy-7,20-dimethyl-15,16-methylene-19-norpregn4-en-3-one]",+,–
"C[C@@H]1CC2=CC(=O)CC[C@@H]2[C@H]2CC[C@@]3(C)[C@H](CC[C@@]3(O)CO)[C@@H]21 [Example 13, (7α,14β,17β)-17-Hydroxy-17-(hydroxymethyl)-7-methylestr-4-en-3-one]",+,–
"C[C@@H]1CC2=CC(=O)CC[C@@H]2[C@H]2CC[C@@]3(C)[C@H](C[C@@H](C)[C@H]3CO)[C@@H]21 [Example 8, (7α,14β,16α,17α)-17-(Hydroxymethyl)-7,16-dimethylestr-4-en-3-one]",+,–
CC[C@H](O)[C@@H]1CC[C@@H]2[C@@H]3CCC4=CC(=O)CC[C@@H]4[C@H]3CC[C@@]21C [Example 25a],++,–
"CC1CC2=CC(=O)CCC2C2CCC3(C)C(CCC3(C)CO)C12 (stereo not drawn) [Example 11, (7α,14β,17α)-17-(Hydroxymethyl)-7,17-dimethylestr-4-en-3-one]",+,–
"CC[C@@H]1CC2=CC(=O)CC[C@@H]2[C@H]2CC[C@]3(C)[C@H](CO)CC[C@@H]3[C@H]12 [Example 14, (7α,14β,17α)-7-Ethyl-17-(hydroxymethyl)estr-4-en-3-one]",+,–
